Patent US9475775B2, “Benzazepine dicarboxamide compounds” (Hoffmann-La Roche Inc., priority 2015, dated 2016)

Assays:
[1] = molecular target: human TLR8 (Homo sapiens (Human), UniProt Q9NR97); assay: HEK-Blue human TLR8 cells, NF-κB SEAP reporter assay; type: cell-based; details: stimulation for 20 hours
Text: (§1) For TLR8 and TLR7 activity testing, HEK-Blue human TLR8 or TLR7 cells (Invivogen, San Diego, Calif., USA) are used, respectively. These cells are designed for studying the stimulation of human TLR8 or TLR7 by monitoring the activation of NF-κB. A SEAP (secreted embryonic alkaline phosphatase) reporter gene is placed under the control of the IFN-b minimal promoter fused to five NF-κB and AP-1-binding sites. Therefore the reporter expression is regulated by the NF-κB promoter upon stimulation of human TLR8 or TLR7 for 20 hours. The cell culture supernatant SEAP reporter activity was determined using Quanti Blue kit (Invivogen, San Diego, Ca, USA) at a wavelength of 640 nm, a detection medium that turns purple/blue in the presence of alkaline phosphatase. EC50 values were determined using Activity Base analysis (ID Business Solution, Limited).

[2] = molecular target: human TLR7 (Homo sapiens (Human), UniProt Q9NYK1); assay: HEK-Blue human TLR7 cells, NF-κB SEAP reporter assay; type: cell-based; details: stimulation for 20 hours
Chain of human TLR7 (Q9NYK1 27-1049): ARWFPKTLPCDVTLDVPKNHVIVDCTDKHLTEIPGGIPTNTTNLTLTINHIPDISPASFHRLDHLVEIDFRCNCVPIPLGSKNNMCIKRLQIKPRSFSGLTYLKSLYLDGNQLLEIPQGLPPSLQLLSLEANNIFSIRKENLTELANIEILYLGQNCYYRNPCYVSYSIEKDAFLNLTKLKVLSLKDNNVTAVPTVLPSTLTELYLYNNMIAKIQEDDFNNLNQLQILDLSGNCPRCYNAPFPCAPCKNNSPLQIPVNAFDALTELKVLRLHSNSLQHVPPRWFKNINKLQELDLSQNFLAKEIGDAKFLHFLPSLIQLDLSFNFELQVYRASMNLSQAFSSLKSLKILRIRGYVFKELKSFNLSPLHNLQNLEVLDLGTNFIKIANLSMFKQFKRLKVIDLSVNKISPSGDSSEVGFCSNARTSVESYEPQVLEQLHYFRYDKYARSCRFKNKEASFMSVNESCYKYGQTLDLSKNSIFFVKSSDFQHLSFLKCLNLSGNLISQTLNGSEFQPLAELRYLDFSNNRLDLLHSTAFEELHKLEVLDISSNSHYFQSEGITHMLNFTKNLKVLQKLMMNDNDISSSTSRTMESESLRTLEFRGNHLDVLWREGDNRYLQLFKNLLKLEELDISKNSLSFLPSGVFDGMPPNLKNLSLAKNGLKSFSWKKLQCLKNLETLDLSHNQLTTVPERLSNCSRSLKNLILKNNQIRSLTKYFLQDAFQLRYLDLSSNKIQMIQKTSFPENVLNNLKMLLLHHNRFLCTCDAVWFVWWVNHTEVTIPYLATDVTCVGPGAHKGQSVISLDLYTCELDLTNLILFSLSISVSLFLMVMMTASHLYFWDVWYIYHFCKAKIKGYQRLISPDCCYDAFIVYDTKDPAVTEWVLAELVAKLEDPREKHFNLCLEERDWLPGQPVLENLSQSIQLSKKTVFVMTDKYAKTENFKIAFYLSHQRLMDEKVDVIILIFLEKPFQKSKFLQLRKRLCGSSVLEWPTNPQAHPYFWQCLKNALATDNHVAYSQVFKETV
Text: as §1

Chain of human TLR8 (Q9NR97 27-1041): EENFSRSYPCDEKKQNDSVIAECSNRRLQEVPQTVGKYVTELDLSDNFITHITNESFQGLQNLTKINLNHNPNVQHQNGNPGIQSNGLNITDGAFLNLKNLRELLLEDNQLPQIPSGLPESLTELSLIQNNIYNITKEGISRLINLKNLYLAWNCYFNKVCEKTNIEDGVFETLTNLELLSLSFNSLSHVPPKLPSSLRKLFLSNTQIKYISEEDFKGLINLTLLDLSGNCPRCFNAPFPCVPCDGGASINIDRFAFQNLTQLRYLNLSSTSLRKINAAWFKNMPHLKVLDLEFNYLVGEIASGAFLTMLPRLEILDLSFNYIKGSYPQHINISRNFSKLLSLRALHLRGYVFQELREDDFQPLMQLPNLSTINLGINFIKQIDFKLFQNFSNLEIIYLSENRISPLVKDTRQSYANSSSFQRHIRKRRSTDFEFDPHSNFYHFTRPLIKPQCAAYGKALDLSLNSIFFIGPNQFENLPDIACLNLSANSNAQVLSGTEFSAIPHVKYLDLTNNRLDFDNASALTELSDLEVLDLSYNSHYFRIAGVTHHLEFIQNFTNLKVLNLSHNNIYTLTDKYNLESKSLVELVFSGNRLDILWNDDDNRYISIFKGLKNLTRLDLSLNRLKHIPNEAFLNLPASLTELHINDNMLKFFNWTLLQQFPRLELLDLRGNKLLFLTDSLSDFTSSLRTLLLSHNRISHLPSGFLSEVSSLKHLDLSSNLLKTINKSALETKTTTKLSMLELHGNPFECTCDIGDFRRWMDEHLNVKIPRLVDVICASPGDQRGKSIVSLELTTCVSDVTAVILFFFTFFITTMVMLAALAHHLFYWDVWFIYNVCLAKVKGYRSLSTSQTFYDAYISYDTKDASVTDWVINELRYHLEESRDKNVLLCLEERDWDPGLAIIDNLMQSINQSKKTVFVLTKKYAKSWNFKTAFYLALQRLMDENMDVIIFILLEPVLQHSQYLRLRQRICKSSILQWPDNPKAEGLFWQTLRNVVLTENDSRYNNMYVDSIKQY

EC50 [1] [nM]	EC50 [2] [nM]	Compound
2	> 100000	CCCN(CCC)C(=O)C1=Cc2ccc(C(=O)Nc3cccc(OC)c3)cc2N=C(N)C1 [Example 30, 2-Amino-N8-(3-methoxyphenyl)-N4,N4-dipropyl-3H-1-benzazepine-4,8-dicarboxamide]
6	> 100000	CCCN(CCC)C(=O)C1=Cc2ccc(C(=O)Nc3cccc(COCCOCCN)c3)cc2N=C(N)C1 [Example 47, 2-Amino-N8-[3-[2-(2-aminoethoxy)ethoxymethyl]phenyl]-N4,N4-dipropyl-3H-1-benzazepine-4,8-dicarboxamide]
18	> 100000	CCCN(CCC)C(=O)C1=Cc2ccc(C(=O)Nc3ccc(CCN)cc3)cc2N=C(N)C1 [Example 25, 2-Amino-N8-[4-(2-aminoethyl)phenyl]-N4,N4-dipropyl-3H-1-benzazepine-4,8-dicarboxamide]
31	> 100000	CCCN(CCCOCCOCCN)C(=O)C1=Cc2ccc(C(=O)Nc3cccc(C)c3)cc2N=C(N)C1 [Example 49, 2-amino-N4-[3-[2-(2-aminoethoxy)ethoxy]propyl]-N8-(m-tolyl)-N4-propyl-3H-1-benzazepine-4,8-dicarboxamide]
1	> 100000	CCCN(CCC)C(=O)C1=Cc2ccc(C(=O)Nc3cccc(CC)c3)cc2N=C(N)C1 [Example 29, 2-Amino-N8-(3-ethylphenyl)-N4,N4-dipropyl-3H-1-benzazepine-4,8-dicarboxamide]
11	> 100000	CCCN(CCC)C(=O)C1=Cc2ccc(C(=O)Nc3ccc(F)c(CCN)c3)cc2N=C(N)C1 [Example 63, 2-Amino-N8-[3-(2-aminoethyl)-4-fluoro-phenyl]-N4,N4-dipropyl-3H-1-benzazepine-4,8-dicarboxamide]
6	> 100000	CCCCN(CCO)C(=O)C1=Cc2ccc(C(=O)Nc3cccc(C)c3)cc2N=C(N)C1 [Example 65, 2-Amino-N4-butyl-N4-(2-hydroxyethyl)-N8-(m-tolyl)-3H-1-benzazepine-4,8-dicarboxamide]
26	> 100000	CCCN(CCC)C(=O)C1=Cc2ccc(C(=O)Nc3cccc(OCCOCCN)c3)cc2N=C(N)C1 [Example 45, 2-Amino-N8-[3-[2-(2-aminoethoxy)ethoxy]phenyl]-N4,N4-dipropyl-3H-1-benzazepine-4,8-dicarboxamide]
15	> 100000	CCCN(CCC)C(=O)C1=Cc2ccc(C(=O)Nc3ccc(CCCCCN)cc3)cc2N=C(N)C1 [Example 58, 2-Amino-N8-[4-(5-aminopentyl)phenyl]-N4,N4-dipropyl-3H-1-benzazepine-4,8-dicarboxamide]
3	> 100000	CCCN(CCC)C(=O)C1=Cc2ccc(C(=O)Nc3cccc(CCCN)c3)cc2N=C(N)C1 [Example 59, 2-Amino-N8-[3-(3-aminopropyl)phenyl]-N4,N4-dipropyl-3H-1-benzazepine-4,8-dicarboxamide]

The next lines start with the molecule.

Compound	EC50 [1] [nM]	EC50 [2] [nM]
CCCN(CCC)C(=O)C1=Cc2ccc(C(=O)Nc3ccc(OCC)nc3)cc2N=C(N)C1 [Example 35, 2-Amino-N8-(6-ethoxy-3-pyridyl)-N4,N4-dipropyl-3H-1-benzazepine-4,8-dicarboxamide]	1	> 100000
CCCN(CCC)C(=O)C1=Cc2ccc(C(=O)Nc3cc(C)cc(C)c3)cc2N=C(N)C1 [Example 23, 2-Amino-N8-(3,5-dimethylphenyl)-N4,N4-dipropyl-3H-1-benzazepine-4,8-dicarboxamide]	1	> 100000
CCCN(CCC)C(=O)C1=Cc2ccc(C(=O)Nc3cccnc3C)cc2N=C(N)C1 [Example 21, 2-Amino-N8-(2-methyl-3-pyridyl)-N4,N4-dipropyl-3H-1-benzazepine-4,8-dicarboxamide]	21	> 100000
CCCN(CCC)C(=O)C1=Cc2ccc(C(=O)Nc3cncc(OCCN)c3)cc2N=C(N)C1 [Example 66, 2-Amino-N8-[5-(2-aminoethoxy)-3-pyridyl]-N4,N4-dipropyl-3H-1-benzazepine-4,8-dicarboxamide]	31	> 100000
CCCN(CCC)C(=O)C1=Cc2ccc(C(=O)Nc3ccc(Cl)cc3)cc2N=C(N)C1 [Example 10, 2-Amino-N8-(4-chlorophenyl)-N4,N4-dipropyl-3H-1-benzazepine-4,8-dicarboxamide]	2	> 100000
CCCN(CCC)C(=O)C1=Cc2ccc(C(=O)Nc3ccc(CCCN)nc3)cc2N=C(N)C1 [Example 75, 2-Amino-N8-[6-(3-aminopropyl)-3-pyridyl]-N4,N4-dipropyl-3H-1-benzazepine-4,8-dicarboxamide]	10	> 100000
CCCN(CCC)C(=O)C1=Cc2ccc(C(=O)Nc3cncc(CCc4cccc(OC)c4)c3)cc2N=C(N)C1 [Example 73, 2-Amino-N8-[5-[2-(3-methoxyphenyl)ethyl]-3-pyridyl]-N4,N4-dipropyl-3H-1-benzazepine-4,8-dicarboxamide]	10	> 100000
CCCN(CCC)C(=O)C1=Cc2ccc(C(=O)Nc3cncc(CN(C)C)c3)cc2N=C(N)C1 [Example 78, 2-Amino-N8-[5-[(dimethylamino)methyl]-3-pyridyl]-N4,N4-dipropyl-3H-1-benzazepine-4,8-dicarboxamide]	12	> 100000
CCCN(CCC)C(=O)C1=Cc2ccc(C(=O)Nc3cncnc3)cc2N=C(N)C1 [Example 2, 2-Amino-N4,N4-dipropyl-N8-pyrimidin-5-yl-3H-1-benzazepine-4,8-dicarboxamide]	1	> 100000
CCCN(CCC)C(=O)C1=Cc2ccc(C(=O)Nc3cc(C)cc(CN)c3)cc2N=C(N)C1 [Example 43, 2-Amino-N8-[3-(aminomethyl)-5-methyl-phenyl]-N4,N4-dipropyl-3H-1-benzazepine-4,8-dicarboxamide]	15	61000
CCCN(CCC)C(=O)C1=Cc2ccc(C(=O)Nc3cncc(C(=O)N4CCCC4)c3)cc2N=C(N)C1 [Example 16, 2-Amino-N4,N4-dipropyl-N8-[5-(pyrrolidine-1-carbonyl)-3-pyridyl]-3H-1-benzazepine-4,8-dicarboxamide]	14	> 100000
CCCN(CCC)C(=O)C1=Cc2ccc(C(=O)Nc3cncc(CNC(=O)OCc4ccccc4)c3)cc2N=C(N)C1 [Example 67, Benzyl N-[[5-[[2-amino-4-(dipropylcarbamoyl)-3H-1-benzazepine-8-carbonyl]amino]-3-pyridyl]methyl]carbamate]	4	> 100000
CCCN(CCCO)C(=O)C1=Cc2ccc(C(=O)Nc3cccnc3)cc2N=C(N)C1 [Example 39, 2-Amino-N4-(3-hydroxypropyl)-N4-propyl-N8-(3-pyridyl)-3H-1-benzazepine-4,8-dicarboxamide]	29	> 100000
CCCN(CCC)C(=O)C1=Cc2ccc(C(=O)Nc3ncco3)cc2N=C(N)C1 [Example 38, 2-Amino-N8-oxazol-2-yl-N4,N4-dipropyl-3H-1-benzazepine-4,8-dicarboxamide]	29	45000
CCCN(CCC)C(=O)C1=Cc2ccc(C(=O)Nc3ccc(C)nc3)cc2N=C(N)C1 [Example 22, 2-Amino-N8-(6-methyl-3-pyridyl)-N4,N4-dipropyl-3H-1-benzazepine-4,8-dicarboxamide]	3	> 100000
CCCN(CCC)C(=O)C1=Cc2ccc(C(=O)Nc3cncc(/C=C/CN)c3)cc2N=C(N)C1 [Example 68, 2-Amino-N8-[5-[(E)-3-aminoprop-1-enyl]-3-pyridyl]-N4,N4-dipropyl-3H-1-benzazepine-4,8-dicarboxamide]	8	> 100000
CCCN(CCC)C(=O)C1=Cc2ccc(C(=O)Nc3cncc(CN)c3)cc2N=C(N)C1 [Example 33, 2-Amino-N8-[5-(aminomethyl)-3-pyridyl]-N4,N4-dipropyl-3H-1-benzazepine-4,8-dicarboxamide]	2	> 100000
CCCN(CCC)C(=O)C1=Cc2ccc(C(=O)Nc3cncc(CCc4ccc(CN)cc4)c3)cc2N=C(N)C1 [Example 71, 2-Amino-N8-[5-[2-[4-(aminomethyl)phenyl]ethyl]-3-pyridyl]-N4,N4-dipropyl-3H-1-benzazepine-4,8-dicarboxamide]	29	> 100000
CCCN(CCC)C(=O)C1=Cc2ccc(C(=O)Nc3ccncc3)cc2N=C(N)C1 [Example 3, 2-Amino-N4,N4-dipropyl-N8-(4-pyridyl)-3H-1-benzazepine-4,8-dicarboxamide]	13	70100
CCCN(CCC)C(=O)C1=Cc2ccc(C(=O)Nc3cccc(C(=O)N4CCCC4)c3)cc2N=C(N)C1 [Example 15, 2-Amino-N4,N4-dipropyl-N8-[3-(pyrrolidine-1-carbonyl)phenyl]-3H-1-benzazepine-4,8-dicarboxamide]	2	> 100000
CCCN(CCC)C(=O)C1=Cc2ccc(C(=O)Nc3cccc(C(F)(F)F)c3)cc2N=C(N)C1 [Example 31, 2-Amino-N4,N4-dipropyl-N8-[3-(trifluoromethyl)phenyl]-3H-1-benzazepine-4,8-dicarboxamide]	5	> 100000
CCCN(CCC)C(=O)C1=Cc2ccc(C(=O)Nc3ccc(C)cc3)cc2N=C(N)C1 [Example 28, 2-Amino-N4,N4-dipropyl-N8-(p-tolyl)-3H-1-benzazepine-4,8-dicarboxamide]	1	> 100000
CCCN(CCC)C(=O)C1=Cc2ccc(C(=O)Nc3ccccc3)cc2N=C(N)C1 [Example 4, 2-Amino-N8-phenyl-N4,N4-dipropyl-3H-1-benzazepine-4,8-dicarboxamide]	7	> 100000
